Assay results published in ChEMBL document CHEMBL1201862, “PubChem BioAssay data set” (2004).
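Cells were grown in 96-well plates and exposed to each compound for 48 hours at five concentrations; endpoints were interpolated linearly between bracketing concentrations, or set to the highest concentration if not reached. The concentration for 50% growth inhibition is given as GI50.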 The source made the active and inactive calls. No stated cut-off is given here; in the data, active = GI50 up to about 1.1 µM and inactive = higher.

Assays:
Test in all cases: NCI anticancer screen, dose series, 48 h
MDA-MB-435 = system: MDA-MB-435
MDA-N = system: MDA-N
EKVX = system: EKVX
SK-MEL-28 = system: SK-MEL-28
OVCAR-4 = system: OVCAR-4
RPMI-8226 = system: RPMI-8226
Malme-3M = system: Malme-3M
CAKI-1 = system: CAKI-1
SN12C = system: SN12C
HCT-116 = system: HCT-116
UACC-257 = system: UACC-257
SF-295 = system: SF-295
SR = system: SR
TK-10 = system: TK-10
NCI-H23 = system: NCI-H23
UACC-62 = system: UACC-62
MCF7 = system: MCF7
MDA-MB-231 = system: MDA-MB-231
HOP-92 = system: HOP-92
OVCAR-8 = system: OVCAR-8
T47D = system: T47D
KM12 = system: KM12
SW-620 = system: SW-620
OVCAR-3 = system: OVCAR-3
U-251 = system: U-251
K562 = system: K562
HT-29 = system: HT-29
M14 = system: M14
NCI-H460 = system: NCI-H460
SK-OV-3 = system: SK-OV-3
SF-539 = system: SF-539
HL-60 = system: HL-60
SF-268 = system: SF-268
SNB-19 = system: SNB-19
SK-MEL-5 = system: SK-MEL-5
LOX IMVI = system: LOX IMVI
786-0 = system: 786-0
NCI/ADR-RES = system: NCI/ADR-RES
ACHN = system: ACHN
CCRF-CEM = system: CCRF-CEM
MOLT-4 = system: MOLT-4
OVCAR-5 = system: OVCAR-5
BT-549 = system: BT-549
DU-145 = system: DU-145
HCT-15 = system: HCT-15
PC-3 = system: PC-3
A549 = system: A549
COLO 205 = system: COLO 205
HOP-62 = system: HOP-62
IGROV-1 = system: IGROV-1
HCC 2998 = system: HCC 2998
SNB-75 = system: SNB-75
RXF 393 = system: RXF 393
UO-31 = system: UO-31
SK-MEL-2 = system: SK-MEL-2
NCI-H522 = system: NCI-H522
NCI-H226 = system: NCI-H226
A498 = system: A498

Nc1ccccc1OCc1cc(=O)c(OCc2ccccc2)co1
GI50 (MDA-MB-435): 15.8 µM (inactive) | GI50 (MDA-N): 19.1 µM (inactive) | GI50 (EKVX): 24.1 µM (inactive) | GI50 (SK-MEL-28): > 100 µM (inactive) | GI50 (OVCAR-4): 62.1 µM (inactive) | GI50 (RPMI-8226): 15 µM (inactive) | GI50 (Malme-3M): 34.6 µM (inactive) | GI50 (CAKI-1): 8.65 µM (inactive) | GI50 (SN12C): 0.214 µM (active) | GI50 (HCT-116): 64.7 µM (inactive) | GI50 (UACC-257): 14.3 µM (inactive) | GI50 (SF-295): 10.1 µM (inactive) | GI50 (SR): > 100 µM (inactive) | GI50 (TK-10): 18.8 µM (inactive) | GI50 (NCI-H23): 39.6 µM (inactive) | GI50 (UACC-62): 0.469 µM (active) | GI50 (MCF7): 14.7 µM (inactive) | GI50 (MDA-MB-231): 19.9 µM (inactive) | GI50 (HOP-92): 0.202 µM (active) | GI50 (OVCAR-8): > 100 µM (inactive) | GI50 (T47D): 24.2 µM (inactive) | GI50 (KM12): 6.47 µM (inactive) | GI50 (SW-620): 80.7 µM (inactive) | GI50 (OVCAR-3): 22.9 µM (inactive) | GI50 (U-251): 28.4 µM (inactive) | GI50 (K562): 2.75 µM (inactive) | GI50 (HT-29): 5.05 µM (inactive) | GI50 (M14): 17.7 µM (inactive) | GI50 (NCI-H460): 7.62 µM (inactive) | GI50 (SK-OV-3): 23.6 µM (inactive) | GI50 (SF-539): 21.6 µM (inactive) | GI50 (HL-60): 14.9 µM (inactive) | GI50 (SF-268): 15.9 µM (inactive) | GI50 (SNB-19): > 100 µM (inactive) | GI50 (SK-MEL-5): 18.8 µM (inactive) | GI50 (LOX IMVI): 27.7 µM (inactive) | GI50 (786-0): 23.8 µM (inactive) | GI50 (NCI/ADR-RES): 10.2 µM (inactive) | GI50 (ACHN): 8.99 µM (inactive) | GI50 (CCRF-CEM): > 100 µM (inactive) | GI50 (MOLT-4): > 100 µM (inactive) | GI50 (OVCAR-5): 37.4 µM (inactive) | GI50 (BT-549): 33.5 µM (inactive) | GI50 (DU-145): 47.8 µM (inactive) | GI50 (HCT-15): 24.2 µM | GI50 (PC-3): 34.4 µM (inactive) | GI50 (A549): 71.1 µM (inactive) | GI50 (COLO 205): 12.6 µM (inactive) | GI50 (HOP-62): 33 µM (inactive)

CNc1nc(=O)c(C#N)c(-c2ccc(C)cc2)s1
GI50 (MDA-MB-435): > 100 µM (inactive) | GI50 (MDA-N): > 100 µM (inactive) | GI50 (IGROV-1): > 100 µM (inactive) | GI50 (EKVX): 67.6 µM (inactive) | GI50 (SK-MEL-28): > 100 µM (inactive) | GI50 (OVCAR-4): > 100 µM (inactive) | GI50 (HCC 2998): > 100 µM (inactive) | GI50 (Malme-3M): > 100 µM (inactive) | GI50 (CAKI-1): 35.6 µM (inactive) | GI50 (SN12C): > 100 µM (inactive) | GI50 (HCT-116): > 100 µM (inactive) | GI50 (UACC-257): > 100 µM (inactive) | GI50 (SF-295): > 100 µM (inactive) | GI50 (SR): > 100 µM (inactive) | GI50 (TK-10): > 100 µM (inactive) | GI50 (NCI-H23): > 100 µM (inactive) | GI50 (UACC-62): > 100 µM (inactive) | GI50 (MCF7): > 100 µM (inactive) | GI50 (MDA-MB-231): > 100 µM (inactive) | GI50 (HOP-92): > 100 µM (inactive) | GI50 (SNB-75): > 100 µM (inactive) | GI50 (OVCAR-8): > 100 µM (inactive) | GI50 (T47D): > 100 µM (inactive) | GI50 (KM12): > 100 µM (inactive) | GI50 (SW-620): > 100 µM (inactive) | GI50 (OVCAR-3): > 100 µM (inactive) | GI50 (U-251): > 100 µM (inactive) | GI50 (K562): > 100 µM (inactive) | GI50 (HT-29): > 100 µM (inactive) | GI50 (M14): > 100 µM (inactive) | GI50 (NCI-H460): > 100 µM (inactive) | GI50 (SK-OV-3): > 100 µM (inactive) | GI50 (SF-539): > 100 µM (inactive) | GI50 (RXF 393): > 100 µM (inactive) | GI50 (HL-60): 53.7 µM (inactive) | GI50 (SNB-19): > 100 µM (inactive) | GI50 (UO-31): > 100 µM (inactive) | GI50 (SK-MEL-5): > 100 µM (inactive) | GI50 (LOX IMVI): > 100 µM (inactive) | GI50 (786-0): > 100 µM (inactive) | GI50 (NCI/ADR-RES): > 100 µM (inactive) | GI50 (ACHN): > 100 µM (inactive) | GI50 (SK-MEL-2): > 100 µM (inactive) | GI50 (CCRF-CEM): > 100 µM (inactive) | GI50 (MOLT-4): > 100 µM (inactive) | GI50 (OVCAR-5): > 100 µM (inactive) | GI50 (NCI-H522): 59.3 µM (inactive) | GI50 (BT-549): > 100 µM (inactive) | GI50 (DU-145): > 100 µM (inactive) | GI50 (HCT-15): > 100 µM | GI50 (PC-3): > 100 µM (inactive) | GI50 (A549): > 100 µM (inactive) | GI50 (COLO 205): > 100 µM (inactive) | GI50 (NCI-H226): > 100 µM (inactive)

C1=C2SSC3=CC=C(SSc4ccc(s4)SSC4=CC=C(SSC(=C1)S2)S4)S3
GI50 (MDA-MB-435): > 100 µM (inactive) | GI50 (MDA-N): > 100 µM (inactive) | GI50 (IGROV-1): > 100 µM (inactive) | GI50 (EKVX): > 100 µM (inactive) | GI50 (SK-MEL-28): > 100 µM (inactive) | GI50 (OVCAR-4): > 100 µM (inactive) | GI50 (HCC 2998): > 100 µM (inactive) | GI50 (RPMI-8226): > 100 µM (inactive) | GI50 (Malme-3M): > 100 µM (inactive) | GI50 (CAKI-1): > 100 µM (inactive) | GI50 (SN12C): > 100 µM (inactive) | GI50 (HCT-116): > 100 µM (inactive) | GI50 (UACC-257): > 100 µM (inactive) | GI50 (SF-295): > 100 µM (inactive) | GI50 (SR): > 100 µM (inactive) | GI50 (TK-10): > 100 µM (inactive) | GI50 (NCI-H23): > 100 µM (inactive) | GI50 (MCF7): > 100 µM (inactive) | GI50 (MDA-MB-231): > 100 µM (inactive) | GI50 (HOP-92): > 100 µM (inactive) | GI50 (SNB-75): > 100 µM (inactive) | GI50 (OVCAR-8): > 100 µM (inactive) | GI50 (T47D): > 100 µM (inactive) | GI50 (KM12): > 100 µM (inactive) | GI50 (SW-620): > 100 µM (inactive) | GI50 (OVCAR-3): > 100 µM (inactive) | GI50 (U-251): > 100 µM (inactive) | GI50 (K562): > 100 µM (inactive) | GI50 (HT-29): > 100 µM (inactive) | GI50 (M14): > 100 µM (inactive) | GI50 (NCI-H460): > 100 µM (inactive) | GI50 (A498): > 100 µM (inactive) | GI50 (SK-OV-3): > 100 µM (inactive) | GI50 (RXF 393): > 100 µM (inactive) | GI50 (SF-268): > 100 µM (inactive) | GI50 (SNB-19): > 100 µM (inactive) | GI50 (UO-31): > 100 µM (inactive) | GI50 (SK-MEL-5): > 100 µM (inactive) | GI50 (LOX IMVI): > 100 µM (inactive) | GI50 (786-0): > 100 µM (inactive) | GI50 (NCI/ADR-RES): > 100 µM (inactive) | GI50 (ACHN): > 100 µM (inactive) | GI50 (SK-MEL-2): > 100 µM (inactive) | GI50 (CCRF-CEM): > 100 µM (inactive) | GI50 (MOLT-4): > 100 µM (inactive) | GI50 (OVCAR-5): > 100 µM (inactive) | GI50 (NCI-H522): > 100 µM (inactive) | GI50 (BT-549): > 100 µM (inactive) | GI50 (DU-145): > 100 µM (inactive) | GI50 (HCT-15): > 100 µM | GI50 (PC-3): > 100 µM (inactive) | GI50 (A549): > 100 µM (inactive) | GI50 (COLO 205): > 100 µM (inactive) | GI50 (HOP-62): > 100 µM (inactive) | GI50 (NCI-H226): > 100 µM (inactive)
